In PMC10331946, “Characterization of Natural Compounds as Inhibitors of NS1 Endonuclease from Canine Parvovirus Type 2” (Journal of Microbiology and Biotechnology, 2023):
“And” between values parts separate entries of the source, which are not always exact repeats. Equal values may be shown once. Read-outs that look alike come from different tables or passages of the source.

Target: T1, CPV-2 NS1 endonuclease (Canine parvovirus type 2, UniProt P12929)
T1 construct: hexahistidine (N); hexahistidine (C); made in house; host or cells: E. coli BL21 (De3) pLysS
Assay: FRET nicking assay, inhibition of recombinant CPV-2 NS1 endonuclease
Assay type: biochemical, Canine parvovirus type 2 (CPV-2)
Settings: for Inhibition (%) at 50 μM: 50 μM inhibitor; for IC50: single compounds, 1.25 μg endonuclease, pH 7.0, 300 mM NaCl, 37°C, curcumin by 4PL, others by linear regression
Excerpt: The fluorescence resonance energy transfer (FRET) substrate, which was composed of an oligonucleotide 5¢-TAA CCT TAC CAT AAG TA↓T CAA TCT GTC TTT-3¢ labeled with carboxyfluorescein (FAM) at the 5¢-terminus and black hole quencher 1 (BHQ1) at the 3¢-terminus as the energy transfer pair, was designed and synthesized by Bioneer Corp. (Korea) (Fig. S1).
cDNA of the CPV-2 NS1 endonuclease gene was synthesized after codon optimization (Genscript, USA) based on the N-terminal amino acid sequence (amino acids 1–277 of the DNA-binding region) of CPV-2 NS1 endonuclease (GenBank Accession No. AAV36764.1) (Fig. S2). The CPV-2 NS1 endonuclease gene was imbedded into the pET-28a (+) vector (Novagen, Germany) with hexahistidine tags at the N- and C-termini. The plasmids were transformed into E. coli BL21 (De3) pLysS (Invitrogen, USA) for expression. The transformed cells were cultured in 1 L of LB containing 30 μg/ml kanamycin at 37°C until the OD600 reached 0.6. Next, protein expression was induced with 1 mM isopropyl β-D-1-thiogalactopyranoside (IPTG) at 24°C for 20 h. Cells were harvested by centrifugation at 12,000 ×g for 25 min and 4°C. The pellet was resuspended in 50 ml 50 mM Tris-HCl buffer (pH 7.0) containing 300 mM NaCl and disrupted by sonication. After centrifugation at 12,000 ×g for 30 min and 4°C, the supernatant was applied to a Ni-NTA agarose column (Qiagen, Germany) and washed with 50 mM Tris-HCl buffer (pH 8.0) containing 300 mM NaCl and 20 mM imidazole. CPV-2 NS1 endonuclease was eluted with 50 mM Tris-HCl buffer (pH 8.0) containing 300 mM NaCl, and 250 mM imidazole, and dialyzed against 50 mM Tris-HCl (pH 7.0) containing 300 mM NaCl at 4°C overnight. The purified protein was stored at −20°C until required.
CPV-2 NS1 endonuclease activity was measured using an FRET substrate as described above. The reaction mixture was composed of 1.25 μg endonuclease and 0.6 μM FRET in 50 mM Tris-HCl buffer (pH 7.0). The reaction was run at 37°C with continuous monitoring of fluorescence for 10 min. Relative fluorescence units (RFUs) were measured using a SpectraMax M3 fluorescence plate reader (Molecular Devices, USA) with an excitation wavelength of 495 nm and an emission wavelength of 517 nm.
Thirty-one compounds, extracted sesame cake, turmeric, and yerba mate were tested for inhibitory effects against CPV-2 NS1 endonuclease. For screening, thirty-one compounds, turmeric, and yerba mate were dissolved in dimethyl sulfoxide (DMSO) to 5 mM or 10 mg/ml as stock solutions. Sesame cake extract (10 mg/ml) was solubilized in water. The reaction was initiated by adding 0.6 μM FRET substrate to a mixture of 50 μM compound and 1.25 μg endonuclease in 50 mM Tris-HCl buffer (pH 7.0) containing 300 mM NaCl. The reaction was run at 37°C for 3 min using a SpectraMax M3 fluorescence plate reader with an excitation wavelength of 495 nm and emission wavelength of 517 nm. Inhibitory activity was calculated using the following equation:
Inhibition activity (%) 100-[(S-S0)÷(C-C0)]×100
where C is RFU of the control (enzyme, buffer, and substrate) after a 3 min reaction, C0 is the RFU of the control at 0 min, S is the RFU of the sample (enzyme, buffer, inhibitor, and substrate) after 3 min, and S0 is the RFU of the sample at 0 min.
We determined the 50% inhibitory concentrations (IC50) of the six natural compounds, extracted turmeric, yerba mate, and sesame cake relative to the inhibitor-free control. The IC50 values of curcumin, and extracted sesame cake were calculated using a four-parameter logistic curve (4PL) using Prism v. 8 software (GraphPad Software Inc., USA). […] 8 software.

[1] = 0.6 μM FRET substrate, 1.25 μg enzyme, 50 mM Tris/HCl pH 7.0, 37°C, 3 min
[2] = pH 7, 50 μM inhibitor, 0.6 μM FRET substrate, 1.25 μg enzyme, 50 mM Tris/HCl pH 7.0, 37°C, 3 min, read-out: Inhibition (%) at 50 μM
[3] = pH 7, read-out: Inhibition (%) at 50 μM, 50 μM inhibitor, 0.6 μM FRET substrate, 1.25 μg enzyme, 50 mM Tris/HCl pH 7.0, 37°C, 3 min

T1 sequence (P12929 1-277): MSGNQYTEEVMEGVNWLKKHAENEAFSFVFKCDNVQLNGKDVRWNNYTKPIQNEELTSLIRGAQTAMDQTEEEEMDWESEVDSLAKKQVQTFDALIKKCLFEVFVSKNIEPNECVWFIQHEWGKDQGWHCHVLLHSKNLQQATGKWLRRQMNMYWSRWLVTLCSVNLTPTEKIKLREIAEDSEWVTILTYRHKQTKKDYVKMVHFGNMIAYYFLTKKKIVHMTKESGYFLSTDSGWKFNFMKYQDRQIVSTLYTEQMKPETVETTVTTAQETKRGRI

Compound | Inhibition (%) at 50 μM [1] | inhibition at 50 µM [2] | also measured
c1cc2c(cc1[C@H]1OC[C@H]3[C@@H]1CO[C@@H]3c1ccc3c(c1)OCO3)OCO2 [(+)-Sesamin] | did not inhibit | 0% | 
O=c1c(O[C@@H]2O[C@H](CO)[C@@H](O)[C@H](O)[C@H]2O)c(-c2ccc(O)cc2)oc2cc(O)cc(O)c12 [Astragalin] | did not inhibit | 0% | 
O=C(/C=C/c1ccc(O)cc1)CC(=O)/C=C/c1ccc(O)cc1 [Bisdemethoxycurcumin] | 100% |  | inhibition at 50 µM [3]: > 95%; IC50 (0.6 μM FRET substrate, 3 min): 450 ± 50 nM
O=C(O)/C=C/c1ccc(O)c(O)c1 [Caffeic acid] | 42 ± 8% |  | Inhibition (%) at 50 μM (0.6 μM FRET substrate, 1.25 μg enzyme, 50 mM Tris/HCl pH 7.0, 37°C, 3 min, listed as caffeic acid): < 50% and > 29%
Cn1c(=O)c2c(ncn2C)n(C)c1=O [Caffeine] | 7 ± 7% |  | Inhibition (%) at 50 μM (0.6 μM FRET substrate, 1.25 μg enzyme, 50 mM Tris/HCl pH 7.0, 37°C, 3 min, listed as caffeine): < 50%
O=C(/C=C/c1ccc(O)c(O)c1)O[C@@H]1C[C@](O)(C(=O)O)C[C@@H](O)[C@H]1O [Chlorogenic acid] | 29 ± 4% |  | Inhibition (%) at 50 μM (0.6 μM FRET substrate, 1.25 μg enzyme, 50 mM Tris/HCl pH 7.0, 37°C, 3 min, listed as chlorogenic acid): < 50% and > 29%
O=c1c(-c2ccc(O)cc2)coc2cc(O)ccc12 [Daidzein] | 22 ± 12% |  | Inhibition (%) at 50 μM (0.6 μM FRET substrate, 1.25 μg enzyme, 50 mM Tris/HCl pH 7.0, 37°C, 3 min, listed as daidzein): < 50%
COc1cc(/C=C/C(=O)CC(=O)/C=C/c2ccc(O)cc2)ccc1O [Demethoxycurcumin] | 100% |  | inhibition at 50 µM [3]: > 95%; IC50 (0.6 μM FRET substrate, 3 min): 630 ± 10 nM
O=C(O[C@@H]1Cc2c(O)cc(O)cc2O[C@@H]1c1cc(O)c(O)c(O)c1)c1cc(O)c(O)c(O)c1 [EGCG, epigallocatechin gallate] | 49 ± 6% |  | Inhibition (%) at 50 μM (0.6 μM FRET substrate, 1.25 μg enzyme, 50 mM Tris/HCl pH 7.0, 37°C, 3 min, listed as epigallocatechin gallate): < 50%
COc1cc(/C=C/C(=O)O)ccc1O [Ferulic acid] | 37 ± 5% |  | Inhibition (%) at 50 μM (0.6 μM FRET substrate, 1.25 μg enzyme, 50 mM Tris/HCl pH 7.0, 37°C, 3 min, listed as ferulic acid): < 50%
O=c1c(O)c(-c2ccc(O)c(O)c2)oc2cc(O)ccc12 [Fisetin] | did not inhibit | 0% | 
O=C(O)c1cc(O)c(O)c(O)c1 [Gallic acid] | 2 ± 2% |  | Inhibition (%) at 50 μM (0.6 μM FRET substrate, 1.25 μg enzyme, 50 mM Tris/HCl pH 7.0, 37°C, 3 min, listed as gallic acid): < 50%
O=c1c(-c2ccc(O)cc2)coc2cc(O)cc(O)c12 [Genistein] | 45 ± 14% |  | inhibition at 50 µM [3]: < 50%
O=C1O[C@H]([C@@H](O)CO)C(O)=C1O [L-Ascorbic acid] | did not inhibit | 0% | 
C[N+](C)(C)C[C@H](O)CC(=O)[O-] [L-carnitine] | < 50% and 29 ± 2% |  | 
CCCCC/C=C\C/C=C\CCCCCCCC(=O)O [Linoleic acid] | 100% |  | inhibition at 50 µM [3]: > 95%; IC50 (0.6 μM FRET substrate, 3 min): 1140 ± 40 nM
O=c1c2cc(O)c(O)cc2oc2cc(O)c([C@@H]3O[C@H](CO)[C@@H](O)[C@H](O)[C@H]3O)c(O)c12 [Mangiferin] | did not inhibit | 0% | 
O=c1c(O)c(-c2cc(O)c(O)c(O)c2)oc2cc(O)cc(O)c12 [Myricetin] | did not inhibit | 0% | 
O=C1C[C@@H](c2ccc(O)cc2)Oc2cc(O)cc(O)c21 [Naringenin] | did not inhibit | 0% | 
CC1(C)CC[C@]2(C(=O)O)CC[C@]3(C)C(=CC[C@@H]4[C@@]5(C)CC[C@H](O)C(C)(C)[C@@H]5CC[C@]43C)[C@@H]2C1 [Oleanolic acid] | 51 ± 7% |  | Inhibition (%) at 50 μM (0.6 μM FRET substrate, 1.25 μg enzyme, 50 mM Tris/HCl pH 7.0, 37°C, 3 min, listed as oleanolic acid): > 29%
O=C(/C=C/C=C/c1ccc2c(c1)OCO2)N1CCCCC1 [Piperine] | did not inhibit | 0% | 
O=c1c(O)c(-c2ccc(O)c(O)c2)oc2cc(O)cc(O)c12 [Quercetin] | 51 ± 3% |  | Inhibition (%) at 50 μM (0.6 μM FRET substrate, 1.25 μg enzyme, 50 mM Tris/HCl pH 7.0, 37°C, 3 min, listed as quercetin): > 29%
Oc1ccc(/C=C/c2cc(O)cc(O)c2)cc1 [Resveratrol] | did not inhibit | 0% | 
C[C@@H]1O[C@@H](OC[C@H]2O[C@@H](Oc3c(-c4ccc(O)c(O)c4)oc4cc(O)cc(O)c4c3=O)[C@H](O)[C@@H](O)[C@@H]2O)[C@H](O)[C@H](O)[C@H]1O [Rutin] | did not inhibit | 0% | 
Oc1ccc2c(c1)OCO2 [Sesamol] | 9 ± 5% |  | Inhibition (%) at 50 μM (0.6 μM FRET substrate, 1.25 μg enzyme, 50 mM Tris/HCl pH 7.0, 37°C, 3 min, listed as sesamol): < 50%
c1cc2c(cc1O[C@H]1OC[C@H]3[C@@H]1CO[C@@H]3c1ccc3c(c1)OCO3)OCO2 [Sesamolin] | did not inhibit | 0% | 
C[C@H]1[C@H](C)CC[C@]2(C(=O)O)CC[C@]3(C)C(=CC[C@@H]4[C@@]5(C)CC[C@H](O)C(C)(C)[C@@H]5CC[C@]43C)[C@H]12 [Ursolic acid] | 29 ± 5% |  | Inhibition (%) at 50 μM (0.6 μM FRET substrate, 1.25 μg enzyme, 50 mM Tris/HCl pH 7.0, 37°C, 3 min, listed as ursolic acid): < 50% and > 29%
CC1=C(C/C=C(\C)CCC[C@H](C)CCC[C@H](C)CCCC(C)C)C(=O)c2ccccc2C1=O [Vitamin K1] |  | 68 ± 15% | 
Cc1c(C)c2c(c(C)c1O)CC[C@@](C)(CCC[C@H](C)CCC[C@H](C)CCCC(C)C)O2 [α-Tocopherol (Vitamin E), α-Tocopherol] | 98 ± 3% |  | inhibition at 50 µM [3]: > 95%; IC50 (0.6 μM FRET substrate, 3 min): 8030 ± 800 nM
